This test has as its system CETP. The test can be described thus: Chronic inhibition of CETP activity in vivo: Alzet pump infusion, serum LDL/HDL cholesterol profiles by FPLC. Further details: species or system golden Syrian hamster. From the text:
Chronic inhibition of CETP can be achieved by administration of Dimethyl 5,5′-dithiobis[2-difluoromethyl)-4-(2-methylpropyl)-6-(trifluoromethyl)-3-pyridinecarboxylate] (Compound 181) to hamsters using Alzet pump delivery of Compound 181 into the jugular veins of hamsters. Inhibition of CETP should lead to an increase in HDL cholesterol with a concomitant decrease in LDL cholesterol. This can be determined by filtering serum obtained at different time intervals after initiation of inhibitor infusion and quantitating the amount of cholesterol in the LDL and HDL peaks, respectively. In addition the activity of CETP in the serum can be assessed in an ex vivo CETP activity assay.
Male golden Syrian hamsters were maintained on a diet of normal rodent chow enriched with 0.24% cholesterol for at least 2 weeks prior to study. On Day 1, the hamsters were anesthetized with pentobarbital. An indwelling catheter was inserted into the jugular vein and exteriorized onto the back of the neck. The hamsters received […] of Compound 181 (38.5 mg/kg) in a 2% ethanol:98% PEG400 vehicle, or the 2% ethanol:98% PEG400 vehicle alone. An Alzet pump was then attached to the jugular catheter which delivered a steady infusion of 24 μl/day for a dose of 1.3 mg/day(9.2 mg/kg/day). The hamsters received the vehicle (2% ETOH:98% PEG400) or Compound 181 for 8 days. The hamsters were maintained for 12 days. Blood samples were taken on day 1 (pre-bleed) at the time of surgery, and on days 5, 7, 8 and 12. Fast Protein Liquid Chromatography (FPLC) on tandem Superose 6 columns of pooled hamster serum was performed to obtain cholesterol profiles for the two experimental groups.
Serum cholesterol profiles were determined on pooled sera from each group. Total serum cholesterol and CETP activity were determined on individual serum samples. In hamsters administered Compound 181 chronically, there was a 30% reduction and 26% increase in LDL cholesterol and HDL cholesterol concentrations, respectively, compared to the vehicle group at Day 5. The decrease in LDL and increase in HDL persisted until Day 8 when the Alzet pump was exhausted. […] Therefore, it would appear that for every percent reduction in CETP activity determined by the ex vivo assay, there was a 2-3% decrease in LDL cholesterol or increase in HDL cholesterol concentrations.

[1] abbreviates: Day 1 (pre-bleed), pooled serum.
[2] abbreviates: Day 12, after pump exhausted at Day 8, pooled serum.

Structures are written as SMILES.

As for `COC(=O)c1c(C(F)F)nc(C(F)(F)F)c(SSc2c(C(F)(F)F)nc(C(F)F)c(C(=O)OC)c2CC(C)C)c1CC(C)C` [Compound 181, Dimethyl 5,5′-Dithiobis[2-(difluoromethyl)-4-(2-methylpropyl)-6-(trifluoromethyl)-3-pyridinecarboxylate]], under setting [1], the “HDL cholesterol concentration, % of cholesterol concentration in vehicle group” value amounted to 105% and the “LDL cholesterol concentration, % of cholesterol concentration in vehicle group” value came out at 111%. For the same compound, where the note is “Day 5”, the “increase in HDL cholesterol concentration compared to the vehicle group” value was 26% and the “reduction in LDL cholesterol concentration compared to the vehicle group” value was 30%. In addition, under setting [2], the “HDL cholesterol concentration, % of cholesterol concentration in vehicle group” value is given as 114% and the “LDL cholesterol concentration, % of cholesterol concentration in vehicle group” value was 90%.
